In article PMC5119973 (Cancer Medicine, 2016):

Legend:
[1] = Plasma pharmacokinetics in female NMRI Foxn1 nu/nu mice; details: for Calculated maximum free drug concentration: murine plasma
Description: Analyte concentrations were measured by high‐performance liquid chromatography using a Hewlett Packard 1100 Series system (Palo Alto, CA), with tandem mass spectrometric detection using an Applied Biosystems API 4000 (Thermo Fisher Scientific, Waltham, MA). The assay was validated according to the applicable guideline on method validation 11. The lower limit of quantitation for the assay was 2.00 μg/L, with a linear range of 2.00–20,000 μg/L using a sample volume of 100 μL.
Pharmacokinetic studies were performed in female NMRI Foxn1 nu/nu mice, supplied by Harlan‐Winkelmann GmbH (Borchen, Germany). […] Pharmacokinetic parameters, namely the AUC(0–24)ss and C max, were calculated from plasma concentrations using a noncompartmental analysis.

KIT^D816H = target: T1, KIT^D816H (Homo sapiens, UniProt P10721, D816H); assay: KINOMEscan active-site competitive binding assay
T1 construct: purchased DiscoveRx

VEGFR2 [2] = target: T2, VEGFR2 (Homo sapiens, UniProt P35968); assay: VEGFR2 kinase phosphorylation assay in NIH‐3T3 cells; assay type: cell-based; details: 0.1 mg/mL human serum albumin, data not shown
T2 sequence (P35968 20-1356): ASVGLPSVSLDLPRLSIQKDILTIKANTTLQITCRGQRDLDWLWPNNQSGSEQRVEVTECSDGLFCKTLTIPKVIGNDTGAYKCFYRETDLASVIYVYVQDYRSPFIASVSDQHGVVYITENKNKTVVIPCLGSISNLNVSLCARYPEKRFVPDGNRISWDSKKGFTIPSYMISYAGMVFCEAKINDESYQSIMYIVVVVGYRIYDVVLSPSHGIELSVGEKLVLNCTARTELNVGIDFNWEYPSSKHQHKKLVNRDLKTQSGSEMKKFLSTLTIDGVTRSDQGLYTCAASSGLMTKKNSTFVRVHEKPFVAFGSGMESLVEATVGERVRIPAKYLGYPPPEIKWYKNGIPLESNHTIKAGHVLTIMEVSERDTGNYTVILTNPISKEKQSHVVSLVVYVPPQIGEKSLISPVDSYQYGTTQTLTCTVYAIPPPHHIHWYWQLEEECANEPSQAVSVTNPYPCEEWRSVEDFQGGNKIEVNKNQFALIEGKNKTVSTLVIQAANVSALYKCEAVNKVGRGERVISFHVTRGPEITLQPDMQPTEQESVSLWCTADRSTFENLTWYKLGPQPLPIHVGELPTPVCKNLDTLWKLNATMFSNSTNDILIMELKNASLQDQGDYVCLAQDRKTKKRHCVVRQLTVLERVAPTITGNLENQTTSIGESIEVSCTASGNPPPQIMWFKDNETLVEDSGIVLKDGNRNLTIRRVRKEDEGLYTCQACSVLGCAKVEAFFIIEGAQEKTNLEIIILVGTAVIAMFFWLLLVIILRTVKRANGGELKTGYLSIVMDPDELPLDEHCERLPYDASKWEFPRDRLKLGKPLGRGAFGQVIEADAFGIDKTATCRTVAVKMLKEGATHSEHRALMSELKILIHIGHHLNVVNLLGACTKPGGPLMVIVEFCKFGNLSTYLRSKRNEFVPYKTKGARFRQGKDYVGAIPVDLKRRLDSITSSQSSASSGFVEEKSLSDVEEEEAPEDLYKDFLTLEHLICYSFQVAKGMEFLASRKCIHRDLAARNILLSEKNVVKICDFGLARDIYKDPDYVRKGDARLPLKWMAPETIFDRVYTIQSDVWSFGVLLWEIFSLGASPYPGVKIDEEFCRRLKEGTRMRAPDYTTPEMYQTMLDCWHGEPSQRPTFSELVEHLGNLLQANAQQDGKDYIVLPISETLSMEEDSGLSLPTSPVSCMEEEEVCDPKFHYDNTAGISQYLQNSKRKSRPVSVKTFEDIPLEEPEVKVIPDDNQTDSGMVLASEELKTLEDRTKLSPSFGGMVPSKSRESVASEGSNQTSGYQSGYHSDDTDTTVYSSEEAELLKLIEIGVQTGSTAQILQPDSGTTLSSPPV
Description: (§1) TIE‐2, wt KIT, and BRAF^V600E assays were performed by ProQinase (Freiburg, Germany). Cell lines used were Chinese hamster ovary (TIE‐2 assay), human acute megakaryoblastic leukemia cell line (M07e; wt KIT assay), and rat fibroblasts (RAT‐1; BRAF^V600E assay). VEGFR2 assays were performed in murine fibroblasts (NIH‐3T3) in the presence of 0.1 mg/mL human serum albumin. KIT^K642E assays were performed in a GIST cell line (GIST882) in the presence of 0.1 mg/mL BSA. Substrate phosphorylation was determined from total cell lysates by enzyme‐linked immunosorbent assay. In addition, an FGFR phosphorylation assay was performed using a human gastric carcinoma cell line (SNU‐16), with pFGFR assessed by western blot. The PDGFRA phosphorylation assay was performed by DiscoverRx using the DiscoverRx PathHunter cell line, modified to express PDGFRA. […] The assay signal was generated using a detection reagent cocktail and measured by chemoluminescence 13. Both the PDGFRA and FGFR assays were performed in the presence of 0.1 mg/mL BSA.

KIT^V559D,T670I = target: T3, KIT^V559D,T670I (Homo sapiens, UniProt P10721, T670I/V559D); assay: KINOMEscan active-site competitive binding assay
T3 construct: purchased DiscoveRx (KINOMEscan service)

TIE‐2 [3] = target: T4, TIE‐2 (Homo sapiens, UniProt Q02763); assay: KINOMEscan active-site competitive binding assay; parameters: purchased DiscoveRx (KINOMEscan service); details: data not shown
T4 sequence (Q02763 23-1124): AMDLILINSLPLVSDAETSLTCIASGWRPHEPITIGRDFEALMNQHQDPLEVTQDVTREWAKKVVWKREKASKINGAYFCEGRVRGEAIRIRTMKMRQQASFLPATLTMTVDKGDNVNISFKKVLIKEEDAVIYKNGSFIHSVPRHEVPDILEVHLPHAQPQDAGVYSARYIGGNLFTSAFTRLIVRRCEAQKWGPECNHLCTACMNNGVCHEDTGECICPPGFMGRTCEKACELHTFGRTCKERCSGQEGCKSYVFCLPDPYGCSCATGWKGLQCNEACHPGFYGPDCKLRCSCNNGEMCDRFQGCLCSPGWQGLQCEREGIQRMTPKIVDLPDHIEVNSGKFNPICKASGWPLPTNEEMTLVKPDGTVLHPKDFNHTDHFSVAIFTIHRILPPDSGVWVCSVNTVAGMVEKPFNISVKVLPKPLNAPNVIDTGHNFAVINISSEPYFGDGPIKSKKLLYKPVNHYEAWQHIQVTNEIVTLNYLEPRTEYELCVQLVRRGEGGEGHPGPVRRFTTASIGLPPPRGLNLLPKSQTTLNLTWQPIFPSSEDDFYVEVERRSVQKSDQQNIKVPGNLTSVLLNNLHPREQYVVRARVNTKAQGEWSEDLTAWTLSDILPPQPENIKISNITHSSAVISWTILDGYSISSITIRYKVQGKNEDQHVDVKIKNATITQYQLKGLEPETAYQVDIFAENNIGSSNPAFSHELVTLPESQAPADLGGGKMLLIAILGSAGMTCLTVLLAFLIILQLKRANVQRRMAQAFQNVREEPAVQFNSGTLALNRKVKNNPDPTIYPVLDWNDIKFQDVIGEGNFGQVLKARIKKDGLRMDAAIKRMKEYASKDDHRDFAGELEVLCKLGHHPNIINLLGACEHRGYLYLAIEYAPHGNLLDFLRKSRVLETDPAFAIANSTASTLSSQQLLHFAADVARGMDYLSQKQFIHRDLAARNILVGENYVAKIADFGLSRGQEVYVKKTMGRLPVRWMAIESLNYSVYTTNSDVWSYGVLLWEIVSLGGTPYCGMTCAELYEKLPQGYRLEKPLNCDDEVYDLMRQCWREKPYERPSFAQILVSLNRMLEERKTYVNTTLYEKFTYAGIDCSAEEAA

VEGFR2 [4] = target: T2, VEGFR2; assay: KINOMEscan active-site competitive binding assay; parameters: purchased DiscoveRx; details: slash = two separate measurements
FLT4 = target: T5, FLT4 (Homo sapiens, UniProt P35916); assay: KINOMEscan active-site competitive binding assay; details: slash = two separate measurements
T5 construct: purchased DiscoveRx (KINOMEscan service)
T5 sequence (P35916 25-1363): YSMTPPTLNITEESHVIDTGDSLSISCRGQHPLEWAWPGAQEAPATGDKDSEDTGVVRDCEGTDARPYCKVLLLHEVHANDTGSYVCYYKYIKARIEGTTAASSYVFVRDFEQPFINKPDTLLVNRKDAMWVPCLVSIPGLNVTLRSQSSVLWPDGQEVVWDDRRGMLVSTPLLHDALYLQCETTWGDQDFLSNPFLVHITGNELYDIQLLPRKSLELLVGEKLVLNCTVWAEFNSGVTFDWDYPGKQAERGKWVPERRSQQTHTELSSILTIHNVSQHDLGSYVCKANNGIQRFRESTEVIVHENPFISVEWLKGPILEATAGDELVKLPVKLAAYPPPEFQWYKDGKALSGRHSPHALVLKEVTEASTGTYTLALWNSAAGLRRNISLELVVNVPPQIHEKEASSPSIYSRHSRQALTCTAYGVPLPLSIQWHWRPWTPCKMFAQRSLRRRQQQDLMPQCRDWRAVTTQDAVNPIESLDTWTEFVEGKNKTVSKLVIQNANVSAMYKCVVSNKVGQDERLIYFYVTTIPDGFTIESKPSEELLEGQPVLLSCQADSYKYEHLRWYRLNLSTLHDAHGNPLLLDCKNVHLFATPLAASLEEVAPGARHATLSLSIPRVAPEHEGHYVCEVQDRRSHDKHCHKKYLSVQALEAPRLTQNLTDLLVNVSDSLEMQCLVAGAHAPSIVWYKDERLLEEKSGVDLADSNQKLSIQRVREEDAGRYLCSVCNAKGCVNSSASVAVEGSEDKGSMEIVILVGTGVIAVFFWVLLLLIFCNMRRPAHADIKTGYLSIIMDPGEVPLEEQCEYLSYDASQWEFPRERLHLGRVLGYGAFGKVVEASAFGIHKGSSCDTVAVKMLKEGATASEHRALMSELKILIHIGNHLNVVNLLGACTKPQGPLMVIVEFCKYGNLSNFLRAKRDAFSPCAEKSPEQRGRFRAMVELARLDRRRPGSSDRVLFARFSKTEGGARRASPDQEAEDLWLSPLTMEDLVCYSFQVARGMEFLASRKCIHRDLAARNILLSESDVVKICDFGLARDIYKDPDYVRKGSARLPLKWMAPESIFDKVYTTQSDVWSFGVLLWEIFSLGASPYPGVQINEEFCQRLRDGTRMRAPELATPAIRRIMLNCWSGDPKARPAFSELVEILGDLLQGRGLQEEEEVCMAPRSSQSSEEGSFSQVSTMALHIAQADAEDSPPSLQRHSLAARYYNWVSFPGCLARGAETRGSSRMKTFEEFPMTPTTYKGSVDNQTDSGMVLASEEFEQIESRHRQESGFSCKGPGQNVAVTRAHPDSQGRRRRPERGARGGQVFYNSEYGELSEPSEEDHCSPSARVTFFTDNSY

PDGFRα = target: T6, PDGFRα (Homo sapiens, UniProt P16234); assay: PDGFRA phosphorylation assay, PathHunter cell line U2OS/PDGFRA; assay type: cell-based; details: U2OS/PDGFRA cells; 0.1% bovine serum albumin; read-out: Mean ± SD IC50
T6 construct: host or cells: PathHunter cell line (U2OS/PDGFRA)
Description: as §1, with “VEGFR2” for “TIE‐2, wt KIT, and BRAF^V600E assays were performed by ProQinase (Freiburg, Germany). Cell lines used were Chinese hamster ovary (TIE‐2 assay), human acute megakaryoblastic leukemia cell line (M07e; wt KIT assay), and rat fibroblasts (RAT‐1; BRAF^V600E assay). VEGFR2”, “KIT^K642E assays were performed in a GIST cell line (GIST882) in the presence of 0.1 mg/mL BSA.” left out

KIT = KIT (Homo sapiens, UniProt P10721); assay: Cellular kinase phosphorylation assay, M07e/KIT; assay type: cell-based; parameters: human acute megakaryoblastic leukemia cell line (M07e; wt KIT assay); host or cells: M07e; details: M07e/KIT cells; without serum; read-out: Mean ± SD IC50
TIE‐2 [5] = target: T4, TIE‐2; assay: Cellular kinase phosphorylation assay, CHO/TIE2; assay type: cell-based; details: CHO/TIE2 cells; without serum; brackets = number of experiments; read-out: Mean ± SD IC50
VEGFR3 = target: T7, VEGFR3 (Homo sapiens, UniProt P35916); assay: VEGFR3 autophosphorylation in HuLECs stimulated with VEGF‐C (western blot); assay type: cell-based; details: VEGF‐C stimulation, 0.1% bovine serum albumin, estimated from western blots, read-out: Mean ± SD IC50
T7 construct: VEGFR3 autophosphorylation in HuLECs; endogenous in cells; host or cells: HuLEC
T7 sequence (P35916 25-1363): as above
Description: Endothelial cell assays were performed as described previously 14. In brief, HuVECs and HuLECs were grown in EBM‐2 supplemented with growth factors (Lonza, Walkersville, MD). After serum starvation for 6 h in EBM‐2 containing 0.1% BSA, 2 × 10^5 cells were treated with various concentrations of each compound for 1 h before stimulation with VEGF‐A (50 ng/mL) or VEGF‐C (200 ng/mL) for 10 min. Cells were lysed, and total cell lysates were analyzed for inhibition of phosphorylation by western blot, using antibodies against total and phosphorylated VEGFR2 and VEGFR3, ERK1/2, and AKT. Signals were detected by […] luminescence (GE Healthcare Biosciences; Pittsburgh, PA).

RAF1 = target: T8, RAF1 (Homo sapiens, UniProt P04049); assay: KINOMEscan active-site competitive binding assay; details: slash = two separate measurements
T8 construct: purchased DiscoveRx
T8 sequence (P04049 whole entry): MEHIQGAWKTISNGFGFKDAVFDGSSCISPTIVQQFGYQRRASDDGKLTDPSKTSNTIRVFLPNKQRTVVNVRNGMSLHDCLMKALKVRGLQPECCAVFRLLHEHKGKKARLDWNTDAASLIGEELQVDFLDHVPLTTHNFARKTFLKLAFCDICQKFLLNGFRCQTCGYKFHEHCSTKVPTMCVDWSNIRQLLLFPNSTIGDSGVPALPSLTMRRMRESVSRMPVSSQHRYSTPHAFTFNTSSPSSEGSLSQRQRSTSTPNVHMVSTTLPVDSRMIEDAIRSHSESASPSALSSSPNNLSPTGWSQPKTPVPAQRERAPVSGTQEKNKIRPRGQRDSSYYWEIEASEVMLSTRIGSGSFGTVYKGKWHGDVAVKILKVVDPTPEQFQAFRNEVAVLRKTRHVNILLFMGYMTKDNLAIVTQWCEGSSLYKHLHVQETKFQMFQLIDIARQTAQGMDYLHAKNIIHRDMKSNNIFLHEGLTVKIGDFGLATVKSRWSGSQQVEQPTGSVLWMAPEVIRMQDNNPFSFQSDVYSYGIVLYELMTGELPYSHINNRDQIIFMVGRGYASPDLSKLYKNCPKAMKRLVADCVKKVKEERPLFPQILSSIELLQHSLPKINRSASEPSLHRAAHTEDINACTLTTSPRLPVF

FGFRs = assay: KINOMEscan active-site competitive binding assay; details: range among family members, data not shown
RET = target: T9, RET (Homo sapiens, UniProt P07949); assay: KINOMEscan active-site competitive binding assay; details: slash = two separate measurements
T9 construct: purchased DiscoveRx

BRAF^V600E = BRAF^V600E (Homo sapiens, UniProt P15056, V600E); assay: Cellular kinase phosphorylation assay, RAT‐1/BRAF^V600E; assay type: cell-based; parameters: host or cells: RAT-1 rat fibroblasts; details: RAT‐1/BRAF^V600E cells; without serum; read-out: Mean ± SD IC50
[6] = M‐2‐treated mice, 10 mg/kg/day oral for 5 days
[7] = after M‐2 10 mg/kg/day oral for 5 days, total = sum of molar concentrations of regorafenib, M‐2, M‐5
[8] = after regorafenib 10 mg/kg/day oral for 5 days, total = sum of molar concentrations of regorafenib, M‐2, M‐5
[9] = after the labelled (administered) compound, 10 mg/kg/day oral for 5 days
[10] = analyte in plasma after M‐2 10 mg/kg/day oral for 5 days
[11] = analyte in plasma after M‐2 10 mg/kg/day oral for 5 days, AUC(0–24)ss
[12] = analyte in plasma after regorafenib 10 mg/kg/day oral for 5 days
[13] = analyte in plasma after regorafenib 10 mg/kg/day oral for 5 days, AUC(0–24)ss
[14] = regorafenib‐treated mice, 10 mg/kg/day oral for 5 days
[15] = analyte in plasma after M‐5 10 mg/kg/day oral for 5 days

Compound | Share of total exposure (sum of total AUC(0–24)ss) [1, 6] | AUC (% of total) [1, 7] | AUC (% of total) [1, 8] | AUC [1, 10] | C max [1, 10] | Cmax [1, 10] | AUC [1, 11] | AUC [1, 12] | C max [1, 12] | Cmax [1, 12] | AUC [1, 13] | Calculated maximum free drug concentration [1] | Share of total exposure (sum of total AUC(0–24)ss) [1, 14] | Kd (KIT^D816H) | Inhibition of VEGFR2 activity, potency relative to regorafenib (VEGFR2 [2]) | Kd (KIT^V559D,T670I) | Kd (TIE‐2 [3]) | Kd (VEGFR2 [4]) | Kd (FLT4) | IC50 (PDGFRα) | other results
CNC(=O)c1cc(Oc2ccc(NC(=O)Nc3ccc(Cl)c(C(F)(F)F)c3)c(F)c2)cc[n+]1[O-] [M‐2] | 78% | 78% | 16% | 104.4 µmol·h/L | 6150 ng/mL | 12300 nM | 52,101 μg × h/L | 15.0 µmol·h/L | 753 ng/mL | 1500 nM | 7490 µg·h/L | 13.4 nmol/L | 16% | 490 nM | higher potency than regorafenib | 12 nM | 790 nM | 29 nM | 46 nM | 44 nM | Overall total C max for all three compounds [1, 9]: about 7500 μg/L; Sum of the total AUC(0–24)ss of regorafenib, M‐2 and M‐5 [1, 9]: 67,093 μg × h/L; IC50 (KIT): 13 nM; IC50 (TIE‐2 [5]): 66 ± 35 nM; IC50 (VEGFR3): ~4 nM; Kd (RAF1): 130 nM; Kd (FGFRs): 440 to 880 nM; Kd (RET): 7.6 nM; IC50 (BRAF^V600E): 21 nM
NC(=O)c1cc(Oc2ccc(NC(=O)Nc3ccc(Cl)c(C(F)(F)F)c3)c(F)c2)cc[n+]1[O-] [M‐5] | 5% | 5% | 2% | 7.0 µmol·h/L | 342 ng/mL | 700 nM | 3391 µg·h/L | 1.6 µmol·h/L | 63 ng/mL | 100 nM | 772 µg·h/L | 0.5 nmol/L | 2% | 460 nM | higher potency than regorafenib | 11 nM | 1200 nM | 31 nM | 40 nM | 61 nM | AUC (% of total) ([1]; after M‐5 10 mg/kg/day oral for 5 days, only M‐5 determined): 100%; AUC [1, 15]: 108.9 µmol·h/L; Cmax [1, 15]: 10900 nM; AUC ([1]; analyte in plasma after M‐5 10 mg/kg/day oral for 5 days, AUC(0–24)ss): 52,796 μg × h/L; IC50 (KIT): 110 nM; IC50 (TIE‐2 [5]): 180 nM; IC50 (VEGFR3): ~16 nM; Kd (RAF1): 66 nM; Kd (FGFRs): 790 to 1100 nM; Kd (RET): 5.8 nM; IC50 (BRAF^V600E): 27 nM
